Measured values reported in PubChem BioAssay (NCI).
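Compound exposure: 48 hours, 5 concentrations, 96-well plates. Here, GI50 denotes the concentration required for 50% inhibition of growth. At the TGI there is no net growth.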

Columns and labels:
Assay in all cases: NCI-60 cell line screen, 48 h
CAKI-1 renal = tested on: CAKI-1 renal
HCT-15 colon = tested on: HCT-15 colon
HOP-62 NSCLC = tested on: HOP-62 NSCLC
MCF7 breast = tested on: MCF7 breast
MDA-MB-231 breast = tested on: MDA-MB-231 breast
MOLT-4 leukemia = tested on: MOLT-4 leukemia
OVCAR-3 ovarian = tested on: OVCAR-3 ovarian
SF-268 CNS = tested on: SF-268 CNS
SK-MEL-2 melanoma = tested on: SK-MEL-2 melanoma
BT-549 breast = tested on: BT-549 breast

## C/C(CC(=O)NNc1ccc([N+](=O)[O-])cc1)=N\Nc1ccc([N+](=O)[O-])cc1
CAKI-1 renal
  GI50: 1.93 µM
  TGI: 32.2 µM
HCT-15 colon
  GI50: 19.7 µM
  TGI: > 100 µM
HOP-62 NSCLC
  GI50: 14.2 µM
  TGI: 38 µM
MCF7 breast
  GI50: 12.9 µM
  TGI: > 100 µM
MDA-MB-231 breast
  GI50: 2.12 µM
  TGI: 19.7 µM
MOLT-4 leukemia
  GI50: 6.45 µM
  TGI: > 100 µM
OVCAR-3 ovarian
  GI50: 8.03 µM
  TGI: 31.1 µM
SF-268 CNS
  GI50: 13.4 µM
  TGI: > 100 µM
SK-MEL-2 melanoma
  GI50: 11 µM
  TGI: 87.5 µM

## COC(=O)C(=O)C(C(=O)C(=O)Nc1ccc(Cl)cc1C)c1nc2ccc(C(=O)c3ccccc3)cc2[nH]c1=O (centres undefined)
CAKI-1 renal
  TGI: > 100 µM
HCT-15 colon
  TGI: > 100 µM
HOP-62 NSCLC
  TGI: > 100 µM
MOLT-4 leukemia
  TGI: > 100 µM
OVCAR-3 ovarian
  TGI: > 100 µM
SF-268 CNS
  TGI: > 100 µM
SK-MEL-2 melanoma
  TGI: > 100 µM

## O=C1C(=O)N(C(=O)c2ccc(Cl)c(Cl)c2)c2ccc(Cl)cc21
MOLT-4 leukemia
  TGI: > 100 µM
OVCAR-3 ovarian
  TGI: > 100 µM
SF-268 CNS
  TGI: > 100 µM

## O=c1c2ccccc2nc(-c2ccc(Br)cc2)n1NC1OC(CO)C(O)C(O)C1O (centres undefined)
CAKI-1 renal
  TGI: > 100 µM
HCT-15 colon
  TGI: > 100 µM
HOP-62 NSCLC
  TGI: > 100 µM
MOLT-4 leukemia
  TGI: > 100 µM
OVCAR-3 ovarian
  TGI: > 100 µM
SF-268 CNS
  TGI: > 100 µM
SK-MEL-2 melanoma
  TGI: > 100 µM

## CC(=O)NC(CCCCNC(=O)N(CCCl)N=O)C(=O)NCc1ccccc1 (centres undefined)
CAKI-1 renal
  TGI: > 100 µM
HCT-15 colon
  TGI: > 100 µM
HOP-62 NSCLC
  TGI: > 100 µM
MOLT-4 leukemia
  TGI: > 100 µM
OVCAR-3 ovarian
  TGI: > 100 µM
SF-268 CNS
  TGI: > 100 µM
SK-MEL-2 melanoma
  TGI: > 100 µM

## Cc1ccc(S(=O)(=O)/N=c2\ssc(Nc3ccccc3)c2Cl)cc1
BT-549 breast
  GI50: 5.27 µM
  TGI: 17 µM
CAKI-1 renal
  GI50: 7.6 µM
  TGI: 21.1 µM
HCT-15 colon
  GI50: 11.9 µM
  TGI: 34.4 µM
HOP-62 NSCLC
  GI50: 23.6 µM
  TGI: > 50 µM
MDA-MB-231 breast
  GI50: 9.84 µM
  TGI: 26 µM
MOLT-4 leukemia
  GI50: 10.3 µM
  TGI: > 50 µM
OVCAR-3 ovarian
  GI50: 6.08 µM
  TGI: 20.2 µM
SF-268 CNS
  GI50: 6.83 µM
  TGI: 21.8 µM
SK-MEL-2 melanoma
  GI50: 18.3 µM
  TGI: > 50 µM

## NC(=O)N/N=C(\C(=O)C(=O)Nc1ccc(Cl)c(C(F)(F)F)c1)c1nc2ccc(C(=O)c3ccccc3)cc2[nH]c1=O
CAKI-1 renal
  TGI: > 100 µM
HCT-15 colon
  TGI: > 100 µM
MOLT-4 leukemia
  TGI: > 100 µM
SF-268 CNS
  TGI: > 100 µM
SK-MEL-2 melanoma
  TGI: > 100 µM

## COC(=O)C1=CN=C(C(=O)OC)NN1
CAKI-1 renal
  TGI: > 100 µM
HCT-15 colon
  TGI: > 100 µM
HOP-62 NSCLC
  TGI: > 100 µM
MOLT-4 leukemia
  TGI: > 100 µM
OVCAR-3 ovarian
  TGI: > 100 µM
SF-268 CNS
  TGI: > 100 µM
SK-MEL-2 melanoma
  TGI: > 100 µM

## Cc1oc2c(C)c(O)c3c(c2c1C1(C)OCCO1)C(=O)C=C(Cl)C3=O
CAKI-1 renal
  TGI: > 100 µM
HCT-15 colon
  TGI: > 100 µM
HOP-62 NSCLC
  TGI: > 100 µM
MOLT-4 leukemia
  TGI: > 100 µM
OVCAR-3 ovarian
  TGI: > 100 µM
SF-268 CNS
  TGI: > 100 µM
SK-MEL-2 melanoma
  TGI: > 100 µM

## CN=C1Nc2ccc(Cl)cc2C(c2ccccc2)=NN1C
CAKI-1 renal
  TGI: > 100 µM
HCT-15 colon
  TGI: > 100 µM
HOP-62 NSCLC
  TGI: > 100 µM
MOLT-4 leukemia
  TGI: > 100 µM
OVCAR-3 ovarian
  TGI: > 100 µM
SF-268 CNS
  TGI: > 100 µM
SK-MEL-2 melanoma
  TGI: > 100 µM

## Oc1ccc(CNCc2ccccc2)c2cccnc12
BT-549 breast
  TGI: > 100 µM
CAKI-1 renal
  TGI: > 100 µM
HCT-15 colon
  TGI: > 100 µM
HOP-62 NSCLC
  TGI: > 51.2 µM
MCF7 breast
  TGI: > 100 µM
MOLT-4 leukemia
  TGI: 18.9 µM
OVCAR-3 ovarian
  TGI: 0.721 µM
SF-268 CNS
  TGI: > 65.6 µM

## C[C@@H](CO)OCOCc1ccccc1
CAKI-1 renal
  TGI: > 100 µM
HCT-15 colon
  TGI: > 100 µM
HOP-62 NSCLC
  TGI: > 100 µM
MOLT-4 leukemia
  TGI: > 100 µM
OVCAR-3 ovarian
  TGI: > 100 µM
SF-268 CNS
  TGI: > 100 µM
SK-MEL-2 melanoma
  TGI: > 100 µM

## COC(=O)C1(C(=O)OC)CC2c3c(c4ccccc4n3C)CC(C1=O)N2Cc1ccccc1 (centres undefined)
CAKI-1 renal
  TGI: > 100 µM
HCT-15 colon
  TGI: > 100 µM
HOP-62 NSCLC
  TGI: > 100 µM
MOLT-4 leukemia
  TGI: > 100 µM
OVCAR-3 ovarian
  TGI: > 100 µM
SF-268 CNS
  TGI: > 100 µM
SK-MEL-2 melanoma
  TGI: > 100 µM

## N.N.N.N.N.N.[I-].[Os]
CAKI-1 renal
  GI50: > 100 µM
  TGI: > 100 µM
HCT-15 colon
  GI50: > 100 µM
  TGI: > 100 µM
HOP-62 NSCLC
  GI50: > 100 µM
  TGI: > 100 µM
MOLT-4 leukemia
  GI50: > 100 µM
  TGI: > 100 µM
OVCAR-3 ovarian
  GI50: > 100 µM
  TGI: > 100 µM
SF-268 CNS
  GI50: > 100 µM
  TGI: > 100 µM
SK-MEL-2 melanoma
  GI50: > 100 µM
  TGI: > 100 µM

## C/C=C/C=N/N(C(=O)c1cc([N+](=O)[O-])cc([N+](=O)[O-])c1)C1=NC(c2ccccc2)C(c2ccccc2)=NN1 (centres undefined)
CAKI-1 renal
  TGI: > 100 µM
HCT-15 colon
  TGI: > 100 µM
HOP-62 NSCLC
  TGI: > 100 µM
MOLT-4 leukemia
  TGI: > 100 µM
OVCAR-3 ovarian
  TGI: 72 µM
SF-268 CNS
  TGI: > 100 µM
SK-MEL-2 melanoma
  TGI: > 100 µM

## Cc1cc(O)c(C(c2cccnc2)c2c(O)cc(C)[nH]c2=O)c(=O)[nH]1
BT-549 breast
  TGI: > 100 µM
CAKI-1 renal
  TGI: > 100 µM
HCT-15 colon
  TGI: > 100 µM
HOP-62 NSCLC
  TGI: > 100 µM
MCF7 breast
  TGI: > 100 µM
MDA-MB-231 breast
  TGI: > 100 µM
MOLT-4 leukemia
  TGI: > 100 µM
OVCAR-3 ovarian
  TGI: > 100 µM
SF-268 CNS
  TGI: > 100 µM

## COc1cc2nc(Sc3c([N+](=O)[O-])ncn3C)[nH]c2cc1OC
CAKI-1 renal
  TGI: 37.2 µM
HCT-15 colon
  TGI: > 100 µM
HOP-62 NSCLC
  TGI: > 100 µM
MOLT-4 leukemia
  TGI: 44.4 µM
OVCAR-3 ovarian
  TGI: > 100 µM
SF-268 CNS
  TGI: 69.9 µM
